Results reported in patent US20250275988A1, “FORMULATION FOR TREATING URINARY SYSTEM DISORDERS” (WATERSHED MEDICAL, INC., priority 2022, published 2025).
Converted amounts (≈) assume the structure as drawn. Where two headings read alike, the source gives them in different places.

Experiments:
[1] = anti-bacterial properties of SSD degradation products; details: compared with SSD before degradation in the bladder
Source text: These degradation products include, for example, sulfanilic acid; sulfanilamide; sulfaguanidine, the guanidine derivative of sulfanilamide; and […].

[2] = system: MDR Ecoli and non-MDR Ecoli isolates; assay: MIC90 of antimicrobial agents; type: cell-based
[3] = density and max drug loading of antimicrobial agents considered for carrier particles; type: physicochemical; details: Table 7
[4] = cited from earlier work
[5] = density of materials; type: physicochemical; details: Table 4
[6] = agents marked *: tested against both MDR Ecoli and non-MDR Ecoli isolates, read-out: MIC90
[7] = tested against non-MDR Ecoli isolates only, read-out: MIC90
[8] = agents marked *: tested against both MDR Ecoli and non-MDR Ecoli isolates
[9] = tested against non-MDR Ecoli isolates only

For `Nc1ccccn1` [2-aminopyridine], the anti-bacterial properties [1] was “comparable to the original compound”.

For `NCC[C@H](O)C(=O)N[C@@H]1C[C@H](N)[C@@H](O[C@H]2O[C@H](CN)[C@@H](O)[C@H](O)[C@H]2O)[C@H](O)[C@H]1O[C@H]1O[C@H](CO)[C@@H](O)[C@H](N)[C@H]1O` [Amikacin], the MIC90 [2, 6] is listed as 4 µg/mL (≈ 6.83 µM), the Density [3] is listed as 1.6 g/mL and the solubility in water [4] is listed as 50 mg/mL (≈ 85400 µM).

Work on `C[C@H]1[C@H](NC(=O)/C(=N\OC(C)(C)C(=O)O)c2csc(N)n2)C(=O)N1S(=O)(=O)O` [Aztreoman] yielded an MIC90 [2, 7] of 16 µg/mL (≈ 36.7 µM) and a Density [3] of 1.83 g/mL.

In the case of `CO/N=C(\C(=O)N[C@@H]1C(=O)N2C(C(=O)[O-])=C(C[N+]3(C)CCCC3)CS[C@H]12)c1csc(N)n1` [Cefepime], the MIC90 [2, 7] is reported as 8 µg/mL (≈ 16.6 µM) and the Density [3] is reported as 1.6 g/mL.

In the case of `CO[C@@]1(NC(=O)Cc2cccs2)C(=O)N2C(C(=O)O)=C(COC(N)=O)CS[C@@H]21` [Cefoxitin], the MIC90 [2, 7] is reported as 16 µg/mL (≈ 37.4 µM) and the Density [3] is reported as 1.6 g/mL.

With `CC(C)(O/N=C(\C(=O)N[C@@H]1C(=O)N2C(C(=O)[O-])=C(C[n+]3ccccc3)CS[C@H]12)c1csc(N)n1)C(=O)O` [Ceftazidime] the MIC90 [2, 7] was 8 µg/mL (≈ 14.6 µM) and the Density [3] was 1.6 g/mL.

Work on `[H]/N=C(\N/C(=N/[H])NCCCCCCNC(=N)NC(=N)Nc1ccc(Cl)cc1)Nc1ccc(Cl)cc1` [Chlorohexidine] yielded an MIC90 [2, 7] of 3 µg/mL (≈ 5.94 µM) and a Density [3] of 1.06 g/mL.

Work on `C[C@@H](O)[C@H]1C(=O)N2C(C(=O)O)=C(S[C@@H]3CN[C@H](CNS(N)(=O)=O)C3)[C@H](C)[C@H]12` [Doripenem] yielded an MIC90 [2, 7] of at most 0.12 µg/mL.

`C[C@@H](O)[C@H]1C(=O)N2C(C(=O)O)=C(S[C@@H]3CN[C@H](C(=O)Nc4cccc(C(=O)O)c4)C3)[C@H](C)[C@H]12` [Ertapenem] gave an MIC90 [2, 6] of 0.03 µg/mL (≈ 0.0631 µM) and a Density [3] of 1.6 g/mL.

`CCCCCCCCCCCCCCCCCCCCCC(=O)OCC(O)CO` (centres unmarked) [Glyceryl behenate] gave a Density [5] of 0.942 g/mL.

With `CCCCCCCCCCCCCC(=O)OCC(COC(=O)CCCCCCCCCCCCC)OC(=O)CCCCCCCCCCCCC` [Glyceryl trimyristate] the Density [5] was 0.885 g/mL.

In the case of `CCCCCCCCCCCCCCCC(=O)OCC(COC(=O)CCCCCCCCCCCCCCC)OC(=O)CCCCCCCCCCCCCCC` [Glyceryl tripalmitate], the Density [5] is reported as 0.8752 g/mL.

Work on `CCCCCCCCCCCCCCCCCC(=O)OCC(COC(=O)CCCCCCCCCCCCCCCCC)OC(=O)CCCCCCCCCCCCCCCCC` [Glyceryl tristearate] yielded a Density [5] of 0.862 g/mL.

In the case of `C[C@@H](O)[C@H]1C(=O)N2C(C(=O)O)=C(SCCN=CN)C[C@H]12` [Imipenem], the MIC90 [2, 6] is reported as at most 0.12 µg/mL.

Compound `C[C@@H](O)[C@H]1C(=O)N2C(C(=O)O)=C(S[C@@H]3CN[C@H](C(=O)N(C)C)C3)[C@H](C)[C@H]12` [Meropenem] has an MIC90 [2, 7] of at most 0.06 µg/mL and a Density [3] of 1.4 g/mL.

`CCCCCCCCCCCCCCCCCCO` [Stearyl alcohol] showed a Density [5] of 0.812 g/mL.

`CN(C)c1cc(NC(=O)CNC(C)(C)C)c(O)c2c1C[C@H]1C[C@H]3[C@H](N(C)C)C(O)=C(C(N)=O)C(=O)[C@@]3(O)C(O)=C1C2=O` [Tigecycline] showed an MIC90 [2] of 0.25 µg/mL (≈ 0.427 µM) and a Density [3] of 1.5 g/mL.

In the case of `NC[C@H]1O[C@H](O[C@H]2[C@H](O)[C@@H](O[C@H]3O[C@H](CO)[C@@H](O)[C@H](N)[C@H]3O)[C@H](N)C[C@@H]2N)[C@H](N)C[C@@H]1O` [Tobramycin], the MIC90 [2, 7] is reported as 8 µg/mL (≈ 17.1 µM) and the Density [3] is reported as 1.5 g/mL.

In the case of `[H]/N=C(/N)NS(=O)(=O)c1ccc(N)cc1` [sulfaguanidine], the anti-bacterial properties [1] is reported as “comparable to the original compound”.

With `Nc1ccc(S(N)(=O)=O)cc1` [sulfanilamide] the anti-bacterial properties [1] was “comparable to the original compound”.

In the case of `Nc1ccc(S(=O)(=O)O)cc1` [sulfanilic acid], the anti-bacterial properties [1] is reported as “comparable to the original compound”.

Cefoperazone-avibactam showed an MIC90 [2, 8] of 0.25 ppm and a Density [3] of 1.5 g/mL.

Compound Cefoperazone-sulbactam has an MIC90 [2, 9] of 4 ppm.

Cefoperazone-tazobacatam gave an MIC90 [2, 8] of 0.5 ppm and a Density [3] of 1.5 g/mL.

Colistin showed an MIC90 [2, 8] of at most 0.5 ppm.

Compound Piperacillin-tazobactam has an MIC90 [2, 9] of 4 ppm and a Density [3] of 1.5 g/mL.

Polymxin B gave an MIC90 [2, 8] of 1 ppm.
